Molecules are shown by their SMILES.

For one data set, the target named is NLRP3 (Homo sapiens (Human), UniProt Q96P20). The experiment in a line: Inhibitory activity of NLRP3: IL1β induction in THP1 cells (PMA, LPS, nigericin) and IL1β ELISA detection. In kind it is cell-based. The conditions noted are these: THP-1, 300 nM compound, LPS 500 ng/mL + nigericin 10 μg/mL. The protocol: Study of the Compound's Inhibitory Activity of NLRP3 Step 1: IL1 β Induction 60 μL/well polylysine was added to 96-well cell culture plate and incubated at 37° C. for 30 min. Discard the solution in the plate and wash the cell culture plate twice with PBS. THP1 (50000 cells/well/95 μL) was planted in cell culture plates, 5 μL of PMA was added to each well (the final concentration was 50 ng/mL), and cultured overnight in a thermostat incubator at 37° C. The supernatant was gently sucked out, the cell culture plate was washed with PBS twice, and 80 μL cell culture medium without FBS, followed by 5 μL/well LPS (final concentration 500 ng/mL) was added to each well. The plate was cultured in a thermostat incubator at 37° C. for 3 hours. […] Then 10 μL/well nigericin (final concentration 10 μg/mL) was added to the cell plate and cultured in a thermostat incubator at 37° C. for 0.5 hours. The cell supernatant was collected into a new cell plate and frozen at -80° C. for future use. Step 2: IL1 β detection IL1β antibody was diluted 60 times with coating buffer, and 100 μL of diluted antibody was added to each well of ELISA plate, and incubated at 4° C. overnight. Discard the liquid in the ELISA plate and wash it 4 times with eluent. Add 300 μL/well reagent diluent and incubate the ELISA plate at room temperature for 1.5 hours. Wash the plate with eluent for four times. […] Wash the plate with eluent for four times. Each well was added with 100 μL detection antibody and incubated at 37° C. for 2 h. Wash the plate with eluent for four times. Add 100 μL of HRP labeled secondary antibody to each well. Incubate at 37° C. for 1 hour. Wash the plate with eluent for four times. Add 100 μL of A+B substrate per well. Incubate at 37° C. for 30 minutes. Add 100 μL STOP solution per well. Gently shake the plate for a few seconds. Read the absorption value at 450 nm on the EnVision multifunction reader and calculate the Inhibitory rate according to the following formula: Inhibition %=([…]). […] The log value of concentration was taken as the X-axis and the percentage inhibitory rate as the Y-axis. […]

Data set [1] can be described thus: Pharmacokinetic study in rats after intragastrical administration. In kind it is in vivo. To be noted: rat, male SD rats, oral 3 mg/kg, plasma. The protocol: Pharmacokinetic Study in Rats
Instruments: XEVO TQ-S LC/MS instrument produced by Waters. All measurement data is collected and processed by Masslynx V4.1 software, and the data is calculated and processed by Microsoft Excel. Using WinNonLin 8.0 software, the statistical moment method was used to calculate the pharmacokinetic parameters. Mainly include kinetic parameters Tmax, T1/2, Cmax, AUClast etc. Column: ACQUITY UPLC BEH C18 (2.1 mm×50 mm, 1.7 μm); column temperature 40° C.; mobile phase A is water (0.1% formic acid), mobile phase B is acetonitrile, flow rate is 0.350 ml/min, gradient elution is adopted, the elution gradient is 0.50 min: 10% B; 1.50 min: 90% B; 2.50 min: 90% B; 2.51 min: 10% B; 3.50 min: stop. Injection volume: 1 μL.
Animals: 3 male SD rats with a weight range of 200-220 g. After purchase, they will be kept in the laboratory of the Experimental Animal Center for 2 days and then used. They will be fasted for 12 hours predose and 4 hours after dosing. Drinking water is free during the test. After the rats were gavage, blood samples were taken according to the established time point.
Solvent: 0.4% ethanol+0.4% Tween80+99.2% (0.5% methylcellulose M450). Preparation of the solution for intragastrical administration: accurately weigh the compound, add it to the solvent, and use ultrasound at room temperature for 5 minutes to completely dissolve the drug, and prepare a 0.3 mg/mL medicinal solution.
Pharmaceutical samples: Generally, multiple samples with similar structures (with a molecular weight difference of more than 2 units) are taken, accurately weighed, and administered together (cassette PK). In this way, multiple compounds can be screened at the same time and their oral absorption rates can be compared. A single administration was also used to study the pharmacokinetics of the drug sample in rats.
After intragastrical administration, blood was taken from the orbit at 0.25, 0.5, 1, 2, 4, 8, 10 and 24 hours. Then take 50 μL of the plasma sample, add 200 μL of acetonitrile (including internal standard control verapamil 2 ng/mL), vortex for 3 min and centrifuge at 20000 ref, 4° C. for 10 min. The supernatant plasma was used for LC-MS/MS analysis.
Accurately weigh the compounds to prepare different concentrations, perform quantitative analysis on mass spectrometry to establish a standard curve, and then test the concentration of the above-mentioned compound in the plasma to obtain the compound concentration at different time points. All measurement data are collected and processed by relevant software, and the statistical moment method is used to calculate the pharmacokinetic parameters (mainly including kinetic parameters Tmax, T1/2, Cmax, AUClast etc).

Chain of NLRP3 (Q96P20 whole entry): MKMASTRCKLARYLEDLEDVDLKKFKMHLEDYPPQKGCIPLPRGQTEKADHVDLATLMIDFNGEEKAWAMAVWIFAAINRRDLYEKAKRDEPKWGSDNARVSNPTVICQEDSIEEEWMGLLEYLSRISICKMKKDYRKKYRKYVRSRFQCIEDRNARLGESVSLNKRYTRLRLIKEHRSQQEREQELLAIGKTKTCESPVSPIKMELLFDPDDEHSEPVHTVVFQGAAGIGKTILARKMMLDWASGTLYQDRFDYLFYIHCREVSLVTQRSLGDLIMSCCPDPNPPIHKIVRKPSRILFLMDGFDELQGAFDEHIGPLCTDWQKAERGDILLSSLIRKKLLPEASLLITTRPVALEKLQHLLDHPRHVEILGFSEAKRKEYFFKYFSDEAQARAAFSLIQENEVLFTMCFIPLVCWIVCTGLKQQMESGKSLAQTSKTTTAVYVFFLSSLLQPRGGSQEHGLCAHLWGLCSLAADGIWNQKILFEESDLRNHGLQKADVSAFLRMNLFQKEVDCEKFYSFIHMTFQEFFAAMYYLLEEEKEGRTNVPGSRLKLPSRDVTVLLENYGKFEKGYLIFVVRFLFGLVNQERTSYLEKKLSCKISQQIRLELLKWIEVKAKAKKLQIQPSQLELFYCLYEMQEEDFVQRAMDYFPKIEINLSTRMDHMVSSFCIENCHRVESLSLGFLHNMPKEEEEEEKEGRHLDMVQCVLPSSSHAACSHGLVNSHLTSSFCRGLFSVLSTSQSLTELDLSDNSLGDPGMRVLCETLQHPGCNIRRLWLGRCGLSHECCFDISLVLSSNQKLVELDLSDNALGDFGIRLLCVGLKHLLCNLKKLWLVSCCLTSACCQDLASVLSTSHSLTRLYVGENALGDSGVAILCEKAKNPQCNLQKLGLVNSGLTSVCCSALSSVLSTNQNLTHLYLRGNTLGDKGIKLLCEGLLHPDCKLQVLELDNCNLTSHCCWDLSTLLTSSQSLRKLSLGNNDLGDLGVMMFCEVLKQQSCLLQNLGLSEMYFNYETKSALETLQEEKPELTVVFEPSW

By inhibition is commonly meant the percentage by which the read-out fell short of the control. Turning to `Cc1cc2c(c(NC(=O)NS(C)(=O)=O)c1-c1ccnc(OCC3=CCN(C)CC3)c1)CCC2` [Compound 1], the inhibition at 0.3 µM on NLRP3 was greater than 50%.

On to `Cc1cc2c(c(NC(=O)NS(=O)(=O)C3CC3)c1-c1ccnc(OCC3=CCCN(C)C3)c1)CCC2` [Compound 6], for which the inhibition at 0.3 µM at NLRP3 was greater than 50%.

For the molecule `Cc1cc2c(c(NC(=O)NS(=O)(=O)N(C)C)c1-c1ccnc(OCC3=CCCN(C)C3)c1)CCC2` [Compound 7], the inhibition at 0.3 µM on NLRP3 was greater than 50%.

What is called Cmax is the peak of the concentration-time curve. As a reminder, the Tmax is the time at which the peak concentration occurs. One may read the half-life as how long it takes for the measured level to halve. Read a high half-life as slow loss. As for `COc1cc(-c2c(C)cc3c(c2NC(=O)NS(=O)(=O)c2ccn(C4CC(=C(F)F)C4)n2)CCC3)ccn1` (stereo not shown) [Compound 22], in data set [1], the peak concentration (Cmax) was found to be 1530 ng/mL, the Tmax came out at 1 h and the half-life is 5.6 h. The AUC(0-t) in data set [1] (read-out: AUC(0-24)) was determined as 6710 ng·h/mL.

(Values after patent publication US20240336562A1, “COMPOUND SERVING AS NLRP3 INHIBITOR” (Hangzhou Innogate Pharma Co., Ltd., priority 2021, published 2024).)
